Data: ChEMBL document CHEMBL4808193, “[11]-Chaetoglobosins from Pseudeurotium bakeri Induce G2/M Cell Cycle Arrest and Apoptosis in Human Cancer Cells” (J Nat Prod, 2021)

Experiments:
A549 = test: Cytotoxicity against human A549 cells assessed as reduction in cell viability by MTT assay; assay type: functional, cell-based
A-427 [1] = test: Cytotoxicity against human A-427 cells assessed as reduction in cell viability by MTT assay; assay type: functional, cell-based
HCT-116 = test: Cytotoxicity against human HCT-116 cells assessed as reduction in cell viability by MTT assay; assay type: functional, cell-based
HT-29 = test: Cytotoxicity against human HT-29 cells assessed as reduction in cell viability by MTT assay; assay type: functional, cell-based
MCF7 [2] = test: Cytotoxicity against human MCF7 cells assessed as reduction in cell viability by MTT assay; assay type: functional, cell-based
HeLa = test: Cytotoxicity against human HeLa cells assessed as reduction in cell viability by MTT assay; assay type: functional, cell-based
HepG2 = test: Cytotoxicity against human HepG2 cells assessed as reduction in cell viability by MTT assay; assay type: functional, cell-based
L02 = test: Cytotoxicity against human L02 cells assessed as reduction in cell viability by MTT assay; assay type: cell-based
A-427 [3] = test: Induction of apoptosis in human A-427 cells assessed as late apoptotic cells at 10 uM measured after 24 hrs by Annexin V-FITC/propidium iodide staining based flow cytometric analysis (reference value: 2.06%); assay type: functional
A-427 [4] = test: Induction of apoptosis in human A-427 cells assessed as late apoptotic cells at 5 uM measured after 24 hrs by Annexin V-FITC/propidium iodide staining based flow cytometric analysis (reference value: 2.06%); assay type: functional
A-427 [5] = test: Induction of apoptosis in human A-427 cells assessed as late apoptotic cells at 2.5 uM measured after 24 hrs by Annexin V-FITC/propidium iodide staining based flow cytometric analysis (reference value: 2.06%); assay type: functional
A-427 [6] = test: Induction of apoptosis in human A-427 cells assessed as early apoptotic cells at 10 uM measured after 24 hrs by Annexin V-FITC/propidium iodide staining based flow cytometric analysis (reference value: 6.58%); assay type: functional
A-427 [7] = test: Induction of apoptosis in human A-427 cells assessed as early apoptotic cells at 5 uM measured after 24 hrs by Annexin V-FITC/propidium iodide staining based flow cytometric analysis (reference value: 6.58%); assay type: functional
A-427 [8] = test: Induction of apoptosis in human A-427 cells assessed as early apoptotic cells at 2.5 uM measured after 24 hrs by Annexin V-FITC/propidium iodide staining based flow cytometric analysis (reference value: 6.58%); assay type: functional
MCF7 [9] = test: Induction of apoptosis in human MCF7 cells assessed as late apoptotic cells at 15 uM measured after 24 hrs by Annexin V-FITC/propidium iodide staining based flow cytometric analysis (reference value: 0.38%); assay type: functional
MCF7 [10] = test: Induction of apoptosis in human MCF7 cells assessed as late apoptotic cells at 10 uM measured after 24 hrs by Annexin V-FITC/propidium iodide staining based flow cytometric analysis (reference value: 0.38%); assay type: functional
MCF7 [11] = test: Induction of apoptosis in human MCF7 cells assessed as late apoptotic cells at 5 uM measured after 24 hrs by Annexin V-FITC/propidium iodide staining based flow cytometric analysis (reference value: 0.38%); assay type: functional
MCF7 [12] = test: Induction of apoptosis in human MCF7 cells assessed as early apoptotic cells at 15 uM measured after 24 hrs by Annexin V-FITC/propidium iodide staining based flow cytometric analysis (reference value: 1.49%); assay type: functional
MCF7 [13] = test: Induction of apoptosis in human MCF7 cells assessed as early apoptotic cells at 10 uM measured after 24 hrs by Annexin V-FITC/propidium iodide staining based flow cytometric analysis (reference value: 1.49%); assay type: functional
MCF7 [14] = test: Induction of apoptosis in human MCF7 cells assessed as early apoptotic cells at 5 uM measured after 24 hrs by Annexin V-FITC/propidium iodide staining based flow cytometric analysis (reference value: 1.49%); assay type: functional
A-427 [15] = test: Cell cycle arrest in human A-427 cells assessed as accumulation at G2/M phase at 10 uM measured after 24 hrs by PI staining based flow cytometry (reference value: 18.80%); assay type: functional
A-427 [16] = test: Cell cycle arrest in human A-427 cells assessed as accumulation at S phase at 10 uM measured after 24 hrs by PI staining based flow cytometry (reference value: 33.14%); assay type: functional
A-427 [17] = test: Cell cycle arrest in human A-427 cells assessed as accumulation at G0/G1 phase at 10 uM measured after 24 hrs by PI staining based flow cytometry (reference value: 48.06%); assay type: functional
A-427 [18] = test: Cell cycle arrest in human A-427 cells assessed as accumulation at G2/M phase at 5 uM measured after 24 hrs by PI staining based flow cytometry (reference value: 18.80%); assay type: functional
A-427 [19] = test: Cell cycle arrest in human A-427 cells assessed as accumulation at S phase at 5 uM measured after 24 hrs by PI staining based flow cytometry (reference value: 33.14%); assay type: functional
A-427 [20] = test: Cell cycle arrest in human A-427 cells assessed as accumulation at G0/G1 phase at 5 uM measured after 24 hrs by PI staining based flow cytometry (reference value: 48.06%); assay type: functional
A-427 [21] = test: Cell cycle arrest in human A-427 cells assessed as accumulation at G2/M phase at 2.5 uM measured after 24 hrs by PI staining based flow cytometry (reference value: 18.80%); assay type: functional
A-427 [22] = test: Cell cycle arrest in human A-427 cells assessed as accumulation at S phase at 2.5 uM measured after 24 hrs by PI staining based flow cytometry (reference value: 33.14%); assay type: functional
A-427 [23] = test: Cell cycle arrest in human A-427 cells assessed as accumulation at G0/G1 phase at 2.5 uM measured after 24 hrs by PI staining based flow cytometry (reference value: 48.06%); assay type: functional
MCF7 [24] = test: Cell cycle arrest in human MCF7 cells assessed as accumulation at G2/M phase at 4.5 uM measured after 24 hrs by PI staining based flow cytometry (reference value: 15.28%); assay type: functional
MCF7 [25] = test: Cell cycle arrest in human MCF7 cells assessed as accumulation at S phase at 4.5 uM measured after 24 hrs by PI staining based flow cytometry (reference value: 34.14%); assay type: functional
MCF7 [26] = test: Cell cycle arrest in human MCF7 cells assessed as accumulation at G0/G1 phase at 4.5 uM measured after 24 hrs by PI staining based flow cytometry (reference value: 50.58%); assay type: functional
MCF7 [27] = test: Cell cycle arrest in human MCF7 cells assessed as accumulation at G2/M phase at 3 uM measured after 24 hrs by PI staining based flow cytometry (reference value: 15.28%); assay type: functional
MCF7 [28] = test: Cell cycle arrest in human MCF7 cells assessed as accumulation at S phase at 3 uM measured after 24 hrs by PI staining based flow cytometry (reference value: 34.14%; assay type: functional
MCF7 [29] = test: Cell cycle arrest in human MCF7 cells assessed as accumulation at G0/G1 phase at 3 uM measured after 24 hrs by PI staining based flow cytometry (reference value: 50.58%); assay type: functional
MCF7 [30] = test: Cell cycle arrest in human MCF7 cells assessed as accumulation at G2/M phase at 1.5 uM measured after 24 hrs by PI staining based flow cytometry (reference value: 15.28%); assay type: functional
MCF7 [31] = test: Cell cycle arrest in human MCF7 cells assessed as accumulation at S phase at 1.5 uM measured after 24 hrs by PI staining based flow cytometry (reference value: 34.14%); assay type: functional
MCF7 [32] = test: Cell cycle arrest in human MCF7 cells assessed as accumulation at G0/G1 phase at 1.5 uM measured after 24 hrs by PI staining based flow cytometry (reference value: 50.58%); assay type: functional

CC1=C(C)[C@H]2[C@H](Cc3c[nH]c4ccccc34)NC(=O)[C@]23C(=O)/C=C\CC[C@@H](C)C/C=C/[C@H]3[C@@H]1O showed an IC50 (A549) of 6.9 µM, an IC50 (A-427 [1]) of 7.5 µM and an IC50 (HCT-116) of 11.2 µM. For the same molecule, the IC50 (HT-29) was 8.8 µM, the IC50 (MCF7 [2]) was 6.8 µM and the IC50 (HeLa) was 10.1 µM. For the same molecule, the IC50 (HepG2) was 10.7 µM, the IC50 (L02) was 41.8 µM and the Activity (A-427 [3]) was 33.54%. For the same molecule, the Activity (A-427 [4]) was 33.06%, the Activity (A-427 [5]) was 32.65% and the Activity (A-427 [6]) was 31.16%. It also gave an Activity (A-427 [7]) of 20.64%, an Activity (A-427 [8]) of 18.24% and an Activity (MCF7 [9]) of 21.26%. For the same molecule, the Activity (MCF7 [10]) was 15.06%, the Activity (MCF7 [11]) was 11.69% and the Activity (MCF7 [12]) was 12.83%. It also gave an Activity (MCF7 [13]) of 11.17%, an Activity (MCF7 [14]) of 10.35% and an Activity (A-427 [15]) of 42.41%. It also gave an Activity (A-427 [16]) of 22.03%, an Activity (A-427 [17]) of 35.56% and an Activity (A-427 [18]) of 37.05%. For the same molecule, the Activity (A-427 [19]) was 21.59%, the Activity (A-427 [20]) was 41.36% and the Activity (A-427 [21]) was 34.23%. The Activity (A-427 [22]) was 20.59%, the Activity (A-427 [23]) was 45.18% and the Activity (MCF7 [24]) was 82.7%. The Activity (MCF7 [25]) was 8.06%, the Activity (MCF7 [26]) was 9.24% and the Activity (MCF7 [27]) was 71.45%. It also gave an Activity (MCF7 [28]) of 11.19%, an Activity (MCF7 [29]) of 17.36% and an Activity (MCF7 [30]) of 58.41%. It also gave an Activity (MCF7 [31]) of 17.94% and an Activity (MCF7 [32]) of 23.65%.
